Experimental data reported in US5808109A, “Compounds that inhibit complement and/or suppress immune activity” (T Cell Sciences, Inc., priority 1995, dated 1998).
“And” between values parts separate entries of the source, which are not always exact repeats. Equal entries are not always repeated. Structures can show the parent of a compound that is named as a salt. Where two headings read alike, the source gives them in different places.

Key:
[1] = test system: alternative complement pathway; assay: Inhibition of alternative pathway mediated hemolysis, rabbit erythrocytes, human serum; type: biochemical; conditions: Table XIV, human serum 1 in 24, read-out: Alternative pathway AH50
Experimental: The capacity of the substituted dihydrobenzofurans to inhibit the alternative complement pathway was assessed using the modified method of Platts-Mills and Ishizaka, 1974, J. Immunol., 113:348-358. Essentially, rabbit erythrocytes were lysed using human serum as complement in gelatin veronal buffer (GVB, Sigma, St. Louis, Mo.) with added EGTA (ethylene glycol-bis[β-aminoethyl ether]N,N,N^1,N^1 -tetraacetic acid) and Mg^2+ to 8 mM and 2 mM, respectively. Rabbit erythrocytes (4.5×10^6 cells/ml), human serum (1 in 24 dilution), and the compounds to be tested were incubated one hour at 37° C. in a V-bottom microtiter plate, cells pelleted by centrifugation, the supernatants transferred to a flat-bottom microtiter plate, and the absorbance at 410 nm determined. Samples were paired with identical controls lacking human serum (complement-independent lysis). Both samples and controls were run in triplicate. Control values were subtracted from sample values and the fractional inhibition was determined relative to the uninhibited (no added compound) sample. Results are reported as the concentration of compound yielding fifty per cent (50%) inhibition, AH50. The AH50 values for several of the compounds are included along with the results of other in vitro assays in Table XIV.

factor I = target: T1, factor I (Homo sapiens, UniProt P05156); assay: Inhibition of C3b proteolysis by factor I (SDS-PAGE densitometry); type: biochemical; conditions: sCR1 8 nM as cofactor, C3b 1.2 μM, factor I 0.1 μM, 60 min 37° C.; read-out: C3b cleavage by Factor I, concentration yielding 50% inhibition
T1 construct: purchased Cytotech, San Diego, Calif
T1 sequence (P05156 340-583 limits assumed): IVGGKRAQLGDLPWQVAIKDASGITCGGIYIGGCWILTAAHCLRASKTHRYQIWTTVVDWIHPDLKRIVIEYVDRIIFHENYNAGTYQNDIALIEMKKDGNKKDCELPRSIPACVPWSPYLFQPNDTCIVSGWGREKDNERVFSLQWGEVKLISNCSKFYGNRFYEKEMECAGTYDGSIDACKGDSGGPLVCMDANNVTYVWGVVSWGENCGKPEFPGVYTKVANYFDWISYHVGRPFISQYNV
Source text: The reactions were stopped by the addition of reducing SDS-PAGE sample buffer (Laemmli, 1970, Nature, 227:680-685) subjected to electrophoresis on 4-20% polyacrylamide gradient gels, visualized with Coomassie Blue stain, and quantitated by densitometry. Controls lacking factor I and controls with factor I but lacking test compounds were included. Results are reported as the concentration of test compound which inhibited approximately fifty percent (50%) of the C3b a-chain degradation, IC50.

[2] = test system: hyperacute graft rejection; assay: Guinea pig-to-rat cardiac transplant (discordant xenograft); type: in vivo; conditions: 28 mg/rat intravenous bolus; for Graft survival time: individual animals
Experimental: The effects of compounds 68 and 44a on hyperacute graft rejection were tested in a model of discordant xenografting. The methods were the same as described previously (Prewitt et al., 1991, Transplantation 52:868-873) except that the test compounds were substituted for the active agent (sCR1) of the earlier study. As indicated in the earlier study, male Lewis rats, 12-16 weeks of age, and male Hartley guinea pigs, 4-10 weeks of age (Charles River, Wilmington, Mass.) served as cardiac xenograft recipients and donors, respectively. Under Halothane anesthesia, heterotopic cardiac xenotransplantation was performed by a modification of the microvascular technique of Ono and Lindsey, 1990, J. Thorac. Cardiovas.
Cardiac xenografts were evaluated visually over the first 30 minutes following reperfusion and then, following abdominal closure, every 10 minutes by palpation until rejection. Rejection was defined as total cessation of cardiac xenograft contraction and was confirmed by direct visualization and histological examination. […] Control animals received similar volumes of PBS. Three (n=3) control animals were tested concurrent with the animals receiving compound 68; data from historic controls (n=13) subjected to the same procedure and previously reported (Pruitt et al., 1991, Transplantation 52:868-873) are also included for comparison. Table XV includes the xenograft survival times (minutes) for individual animals and the means and standard errors of the mean (SEM) for the various groups.

human complement = assay: Inhibition of complement-mediated hemolysis, human serum, sensitized sheep erythrocytes; type: biochemical
Experimental: The ability to inhibit complement was also tested by assaying for inhibition of complement-mediated red cell lysis (hemolysis). The inhibition of hemolysis was determined as a function of compound concentration. The compounds to be tested were diluted in 0.1M Hepes buffer (0.15N NaCl, pH 7.4), and 50 μl were added to each well of a V-bottom microtiter plate. Human serum, used as the complement source, was diluted 1 to 500 in Hepes buffer, and 50 μl were added to each well. Next, commercially available sheep erythrocytes with anti-sheep antibody (Diamedix Cat. No. 789-001) were used as received and added at 100 μl/well to initiate the complement pathway leading to hemolysis. The plate was incubated for 60 minutes at 37° C. and then centrifuged at 500×g for 10 minutes. The supernatants were removed and placed in a flat-bottom microtiter plate. The extent of hemolysis was measured as a function of the sample absorbance at 410 nm. The maximal absorbance (corresponding to maximal hemolysis), Amax, was obtained from the absorbance value of an erythrocyte sample containing only human serum, AS, less the absorbance of a sample containing only the red cells, A0. Thus, Amax =AS -A0. The difference between the absorbance of an erythrocyte sample containing both human serum and inhibitive compound, and the absorbance of a cell sample containing inhibitive compound only, was defined as Asample. The inhibition, IH, was expressed as the fraction (Amax -Asample)/Amax, and IH50 was defined as the concentration of inhibitive compound required to produce a value of IH=1/2.
The 4 substituted spirobenzofuran compounds of example 7 and the disubstituted spirobenzofuran compounds of example 8 were tested for their capacity to inhibit complement-mediated lysis of sheep red blood cells (SRBC) as described in Section 6.6.2 supra with the modification that the human serum used as the complement source was diluted to 1 to 100 in Hepes buffer, instead of […]. The results of the hemolysis assays are shown in FIG. 8 and Tables XI and XII.

rat complement = assay: Inhibition of complement-mediated hemolysis, rat serum as complement source; type: biochemical; conditions: Table XIII; read-out: IH50 for Rat Complement
C5a production = assay: Inhibition of C5a production in human serum (aggregated IgG, RIA); type: biochemical; conditions: concentration inhibiting C5a production 50% relative to control
Experimental: (§1) The ability to inhibit complement was tested by assaying for specific inhibition of C3a and C5a production. For all experiments, a single human serum pool, to be used as a source of complement, was aliquoted and stored frozen at -70° C. Human IgG was heat-aggregated, aliquoted, and stored frozen at -70° C. For each experiment, serum aliquots were equilibrated at 37° C. with varying concentrations of the compounds tested. The classical complement pathway was initiated by the addition of aggregated human IgG. Control samples containing no IgG were always included. After a fixed reaction time of 10 minutes (determined in an earlier time-course study to provide a convenient time interval during which the production of C5a or C3a is nearly complete, i.e., greater than 90%), the levels of the released complement peptides (C5a or C3a) were determined by radioimmunoassay using commercially available radioimmunoassay (RIA) kits (C5a RIA, UpJohn Cat. No. 3250-02; C3a RIA, UpJohn Cat. No. 3245-01; C5a RIA, Amersham Cat. No. RPA.520; C3a RIA, Amersham RPA.518).
(§2) Since a competitive immunoassay was used, complement peptide (C5a and C3a) concentrations varied inversely with the counts. The Counts Bound (CB) for a sample was defined as the total counts (in counts per minute, cpm) measured in the pellet minus the counts measured in a nonspecific binding (NSB) control. The NSB control was a sample containing only tracer peptide (^125 I-labelled) and second precipitating antiserum; it contained no C5a- or C3a-specific antiserum.
(§3) The y-axis in FIG. 2 represents the fraction inhibition. The fraction inhibition is equal to the Counts Bound (CB) for a "sample," less the CB in the "sample with no added compound," divided by the CB for the "no IgG control" less the CB in the "sample with no added compound." [formula]
(§4) FIG. 2 is representative of the data plots obtained from the assays described above.

[3] = test system: human peripheral blood lymphocytes (PBL); assay: Inhibition of proliferation of peripheral blood lymphocytes, 3H-thymidine incorporation; type: cell-based; conditions: Lymphocyte, Table IX, 72 h
Experimental: The proliferation of human peripheral blood lymphocytes (PBL) in response to phytohemagglutinin (PHA, Well-come) or anti-CD3 monoclonal antibody (OKT-3, Ortho) was assessed by the incorporation of ^3 H-thymidine. Compound 11a was diluted in culture media to the desired concentrations, human PBL were added to a final concentration of 10^6 cells/ml, and then either PHA (Wellcome) or anti-CD3 (OKT3, Ortho) antibody (final concentration, […]) was added to initiate proliferation. The final volume per sample was 100 μl. The cells were incubated for 72 hours after stimulation, pulsed with 1 μCi ^3 H-thymidine per sample for 4 hours, harvested, and counted in a scintillation counter. […] Because cell viability was unaffected by the presence of 11a (see supra), the inhibition apparently was not due to cytotoxic effects.

C3a production = assay: Inhibition of C3a production in human serum (aggregated IgG, RIA); type: biochemical; conditions: at a concentration of about 8.5 mM
Experimental: as §1, §2, §3, §4

[4] = test system: guinea pig serum complement; conditions: sensitized sheep erythrocytes, read-out: concentration reducing hemolysis 50%; cited from earlier work
[5] = Table XI, human serum diluted 1 to 100, read-out: IH50 Mean
[6] = Table XIII, read-out: IH50 for Human Complement
[7] = Table XIV, read-out: Classical pathway IH50

| IC50 (C5a production) | Molecule | IC50 [1] | IC50 (factor I) | Graft survival time Mean ± SEM [2] | Graft survival time ([2]; SODIUM SALT) | IC50 (human complement; [5]) | IC50 (human complement; Table XII, human serum diluted 1 to 100, read-out: IH50 Mean) | IC50 (human complement; [6]) | IC50 (human complement; [7]) | IC50 (rat complement) | graft survival relative to controls [2] | Graft survival time [2] | effectiveness in inhibiting complement-mediated hemolysis compared with K76COOH (human complement) | IC50 ([3]; PHA stimulation, read-out: IP50 PHA-stimulated PBL) | IC50 ([3]; anti-CD3 (OKT-3) stimulation, read-out: IP50 OKT-3-stimulated PBL) | inhibition of C3a production (C3a production) | IC50 [4] | IC50 (human complement; Table VII, human serum, read-out: IHO50) |
| --- | --- | --- | --- | --- | --- | --- | --- | --- | --- | --- | --- | --- | --- | --- | --- | --- | --- | --- |
| – | COc1cc(C(=O)O)cc2c1CC1(CCCCC1)O2 [Compound 44a, 6-CARBOXYL-4-METHOXYSPIRO[BENZOFURAN-2(3H)-CYCLOHEXANE] SODIUM SALT] | > 5030 µM | 2740 µM | 8 min | 7 min and 9 min | 530 µM | 532 µM | 538 µM | 530 µM | 17300 µM | – | – | – | – | – | – | – | – |
| – | COc1cc(C(=O)O)c(C=O)c2c1CC1(CCCCC1)O2 [Compound 68, 6-carboxy-7-formyl-4-methoxyspiro[benzofuran-2(3H)-cyclohexane]] | 1360 µM | 150 µM | 142 ± 76 min | – | 164 µM | – | 100 µM and 164 µM | 160 µM | – | prolonged graft survival times in 2 of the 3 animals | 7 min and 150 min and 270 min | more effective | – | – | – | – | – |
| 3000 µM | CC1CCC2C(C)(C)C(O)C(O)CC2(C)C12Cc1c(O)cc(C(=O)O)c(C=O)c1O2 (centres unmarked) [K-76 COONa, reference compound] | – | – | – | – | – | – | – | – | – | – | – | – | 500 µM | 500 µM | Only marginal inhibition | 341 µM | 570 µM |
| – | sCR1: soluble human recombinant complement receptor type 1, used as a positive control in the in vitro assays | – | – | – | – | – | – | 0.0009 µM | – | 0.0015 µM | – | – | – | – | – | – | – | – |
